According to publication PMC9186362, “Design and biological evaluation of substituted 5,7-dihydro-6H-indolo[2,3-c]quinolin-6-one as novel selective Haspin inhibitors” (Journal of Enzyme Inhibition and Medicinal Chemistry, 2022):

Legend:
Assay in all cases: SelectScreen ZLYTE
Format in all cases: biochemical
MAP4K5 (KHS1) = target: T1, MAP4K5 (KHS1) (Homo sapiens, UniProt Q9Y4K4); conditions: ATP Km, read-out: Percentage of inhibition
T1 construct: purchased Life Technologies (SelectScreen service)
Experimental: (§1) We further evaluated the selectivity profile of compound 55 on a larger panel of kinases (SelectScreen Whole Panel, Life Technologies). The inhibition profile of 55, evaluated at 1 μM, is depicted on a dendrogram on Figure 3 where kinases inhibited by a minimum of 80% are shown. A full list of the kinases tested is shown on Table S1 in supplementary information.

CDK5/p25 = target: T2, CDK5/p25 (Homo sapiens, UniProt Q00535); conditions: ATP Km, read-out: Percentage of inhibition
T2 construct: purchased Life Technologies
Experimental: as §1

PRKCB2 (PKC beta II) = PRKCB2 (PKC beta II) (Homo sapiens, UniProt P05771); conditions: ATP Km, read-out: Percentage of inhibition
Experimental: as §1

EPHB4 = EPHB4 (Homo sapiens, UniProt P54760); conditions: ATP Km, read-out: Percentage of inhibition
Experimental: as §1

CDC42 BPB (MRCKB) = target: T3, CDC42 BPB (MRCKB) (Homo sapiens, UniProt Q9Y5S2); conditions: ATP Km, read-out: Percentage of inhibition
T3 construct: purchased Life Technologies (SelectScreen Whole Panel service)
Experimental: as §1

SGK (SGK1) = target: T4, SGK (SGK1) (Homo sapiens, UniProt O00141); conditions: ATP Km, read-out: Percentage of inhibition
T4 construct: purchased Life Technologies
Experimental: as §1

ZAP70 = target: T5, ZAP70 (Homo sapiens, UniProt P43403); conditions: ATP Km, read-out: Percentage of inhibition
T5 construct: purchased Life Technologies (SelectScreen Whole Panel)
Experimental: as §1

CAMK4 (CaMKIV) = target: T6, CAMK4 (CaMKIV) (Homo sapiens, UniProt Q16566); conditions: ATP Km, read-out: Percentage of inhibition
T6 construct: purchased Life Technologies
Experimental: as §1

PIM1 = target: T7, PIM1 (Homo sapiens, UniProt P11309); conditions: ATP Km, read-out: Percentage of inhibition
T7 construct: purchased Life Technologies (SelectScreen service)
Experimental: as §1

RET V804L = target: T8, RET V804L (Homo sapiens, UniProt P07949, V804L); conditions: ATP Km, read-out: Percentage of inhibition
T8 construct: purchased Life Technologies
Experimental: as §1

SRPK2 = SRPK2 (Homo sapiens, UniProt P78362); conditions: ATP Km, read-out: Percentage of inhibition
Experimental: as §1

KIT V560G = target: T9, KIT V560G (Homo sapiens, UniProt P10721, V560G); conditions: ATP Km, read-out: Percentage of inhibition
T9 construct: purchased Life Technologies
Experimental: as §1

CSNK2A2 (CK2 alpha 2) = target: T10, CSNK2A2 (CK2 alpha 2) (Homo sapiens, UniProt P19784); conditions: ATP Km, read-out: Percentage of inhibition
T10 construct: purchased Life Technologies (SelectScreen Whole Panel service)
Experimental: as §1

PRKCN (PKD3) = target: T11, PRKCN (PKD3) (Homo sapiens, UniProt O94806); conditions: ATP Km, read-out: Percentage of inhibition
T11 construct: purchased Life Technologies
Experimental: as §1

CLK1 = target: T12, CLK1 (Homo sapiens, UniProt P49759); conditions: ATP Km, read-out: Percentage of inhibition
T12 construct: purchased Life Technologies (SelectScreen Whole Panel)
Experimental: as §1

FLT3 D835Y = target: T13, FLT3 D835Y (Homo sapiens, UniProt P36888, D835Y); conditions: ATP Km, read-out: Percentage of inhibition
T13 construct: purchased Life Technologies (SelectScreen Whole Panel)
Experimental: as §1

BRAF = target: T14, BRAF (Homo sapiens, UniProt P15056); conditions: ATP 100 µM, read-out: Percentage of inhibition
T14 construct: purchased Life Technologies (SelectScreen Whole Panel)
Experimental: as §1

PDK1 Direct = target: T15, PDK1 Direct (Homo sapiens, UniProt O15530); conditions: ATP Km, read-out: Percentage of inhibition
T15 construct: purchased Life Technologies (SelectScreen Whole Panel service)
Experimental: as §1

FRAP1 (mTOR) = FRAP1 (mTOR) (Homo sapiens, UniProt P42345); conditions: ATP Km, read-out: Percentage of inhibition
Experimental: as §1

INSRR (IRR) = target: T16, INSRR (IRR) (Homo sapiens, UniProt P14616); conditions: ATP Km, read-out: Percentage of inhibition
T16 construct: purchased Life Technologies (SelectScreen Whole Panel)
Experimental: as §1

AMPK (A2/B1/G2) = AMPK (A2/B1/G2) (Homo sapiens, UniProt P54646); conditions: ATP Km, read-out: Percentage of inhibition
Experimental: as §1

EPHA2 = target: T17, EPHA2 (Homo sapiens, UniProt P29317); conditions: ATP Km, read-out: Percentage of inhibition
T17 construct: purchased Life Technologies
Experimental: as §1

CLK2 = target: T18, CLK2 (Homo sapiens, UniProt P49760); conditions: ATP Km, read-out: Percentage of inhibition
T18 construct: purchased Life Technologies
Experimental: as §1

RPS6KA6 (RSK4) = target: T19, RPS6KA6 (RSK4) (Homo sapiens, UniProt Q9UK32); conditions: ATP Km, read-out: Percentage of inhibition
T19 construct: purchased Life Technologies
Experimental: as §1

TYRO3 (RSE) = TYRO3 (RSE) (Homo sapiens, UniProt Q06418); conditions: ATP Km, read-out: Percentage of inhibition
Experimental: as §1

TYK2 = target: T20, TYK2 (Homo sapiens, UniProt P29597); conditions: ATP Km, read-out: Percentage of inhibition
T20 construct: purchased Life Technologies (SelectScreen Whole Panel)
Experimental: as §1

IRAK4 = IRAK4 (Homo sapiens, UniProt Q9NWZ3); conditions: ATP Km, read-out: Percentage of inhibition
Experimental: as §1

ALK = target: T21, ALK (Homo sapiens, UniProt Q9UM73); conditions: ATP Km, read-out: Percentage of inhibition
T21 construct: purchased Life Technologies (SelectScreen service)
Experimental: as §1

SGK2 = SGK2 (Homo sapiens, UniProt Q9HBY8); conditions: ATP Km, read-out: Percentage of inhibition
Experimental: as §1

PRKG1 = target: T22, PRKG1 (Homo sapiens, UniProt Q13976); conditions: ATP Km, read-out: Percentage of inhibition
T22 construct: purchased Life Technologies (SelectScreen Whole Panel service)
Experimental: as §1

PRKCQ (PKC theta) = PRKCQ (PKC theta) (Homo sapiens, UniProt Q04759); conditions: ATP Km, read-out: Percentage of inhibition
Experimental: as §1

AMPK (A2/B2/G3) = AMPK (A2/B2/G3) (Homo sapiens, UniProt P54646); conditions: ATP Km, read-out: Percentage of inhibition
Experimental: as §1

[1] = target: EGFR (ErbB1) T790M C797S L858R (Homo sapiens, UniProt P00533, C797S/L858R/T790M); conditions: ATP Km, read-out: Percentage of inhibition
Experimental: as §1

ROCK2 = target: T23, ROCK2 (Homo sapiens, UniProt O75116); conditions: ATP Km, read-out: Percentage of inhibition
T23 construct: purchased Life Technologies
Experimental: as §1

ERBB4 (HER4) = ERBB4 (HER4) (Homo sapiens, UniProt Q15303); conditions: ATP Km, read-out: Percentage of inhibition
Experimental: as §1

MAP2K1 (MEK1) = target: T24, MAP2K1 (MEK1) (Homo sapiens, UniProt Q02750); conditions: ATP 100 µM, read-out: Percentage of inhibition
T24 construct: purchased Life Technologies (SelectScreen Whole Panel)
Experimental: as §1

MERTK = target: T25, MERTK (Homo sapiens, UniProt Q12866); conditions: ATP Km, read-out: Percentage of inhibition
T25 construct: purchased Life Technologies (SelectScreen Whole Panel service)
Experimental: as §1

CSK = target: T26, CSK (Homo sapiens, UniProt P41240); conditions: ATP Km, read-out: Percentage of inhibition
T26 construct: purchased Life Technologies (SelectScreen)
Experimental: as §1

ROS1 = target: T27, ROS1 (Homo sapiens, UniProt P08922); conditions: ATP Km, read-out: Percentage of inhibition
T27 construct: purchased Life Technologies
Experimental: as §1

T7 sequence (P11309 whole entry): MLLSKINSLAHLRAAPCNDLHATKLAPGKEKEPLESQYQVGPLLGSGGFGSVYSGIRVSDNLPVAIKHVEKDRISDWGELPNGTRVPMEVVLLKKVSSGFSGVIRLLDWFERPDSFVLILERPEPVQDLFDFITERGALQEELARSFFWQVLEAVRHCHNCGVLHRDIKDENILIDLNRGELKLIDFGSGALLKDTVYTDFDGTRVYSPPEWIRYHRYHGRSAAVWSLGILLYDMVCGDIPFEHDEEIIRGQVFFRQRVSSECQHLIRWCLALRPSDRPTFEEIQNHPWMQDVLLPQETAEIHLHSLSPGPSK
T18 sequence (P49760 whole entry): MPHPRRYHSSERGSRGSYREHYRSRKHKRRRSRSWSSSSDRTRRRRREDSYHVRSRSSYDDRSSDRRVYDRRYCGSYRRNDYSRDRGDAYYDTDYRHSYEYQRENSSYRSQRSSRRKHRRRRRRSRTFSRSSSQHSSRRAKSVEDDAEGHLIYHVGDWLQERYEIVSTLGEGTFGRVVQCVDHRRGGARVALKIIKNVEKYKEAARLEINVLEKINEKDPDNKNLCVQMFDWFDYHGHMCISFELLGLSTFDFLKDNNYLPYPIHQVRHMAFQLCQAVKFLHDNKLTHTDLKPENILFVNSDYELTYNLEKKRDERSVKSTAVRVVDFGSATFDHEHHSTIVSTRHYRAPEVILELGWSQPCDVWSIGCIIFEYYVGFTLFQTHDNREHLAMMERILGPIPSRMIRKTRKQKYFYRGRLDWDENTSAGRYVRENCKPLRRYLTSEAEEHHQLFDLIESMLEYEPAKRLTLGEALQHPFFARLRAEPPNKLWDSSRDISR
T23 sequence (O75116 whole entry): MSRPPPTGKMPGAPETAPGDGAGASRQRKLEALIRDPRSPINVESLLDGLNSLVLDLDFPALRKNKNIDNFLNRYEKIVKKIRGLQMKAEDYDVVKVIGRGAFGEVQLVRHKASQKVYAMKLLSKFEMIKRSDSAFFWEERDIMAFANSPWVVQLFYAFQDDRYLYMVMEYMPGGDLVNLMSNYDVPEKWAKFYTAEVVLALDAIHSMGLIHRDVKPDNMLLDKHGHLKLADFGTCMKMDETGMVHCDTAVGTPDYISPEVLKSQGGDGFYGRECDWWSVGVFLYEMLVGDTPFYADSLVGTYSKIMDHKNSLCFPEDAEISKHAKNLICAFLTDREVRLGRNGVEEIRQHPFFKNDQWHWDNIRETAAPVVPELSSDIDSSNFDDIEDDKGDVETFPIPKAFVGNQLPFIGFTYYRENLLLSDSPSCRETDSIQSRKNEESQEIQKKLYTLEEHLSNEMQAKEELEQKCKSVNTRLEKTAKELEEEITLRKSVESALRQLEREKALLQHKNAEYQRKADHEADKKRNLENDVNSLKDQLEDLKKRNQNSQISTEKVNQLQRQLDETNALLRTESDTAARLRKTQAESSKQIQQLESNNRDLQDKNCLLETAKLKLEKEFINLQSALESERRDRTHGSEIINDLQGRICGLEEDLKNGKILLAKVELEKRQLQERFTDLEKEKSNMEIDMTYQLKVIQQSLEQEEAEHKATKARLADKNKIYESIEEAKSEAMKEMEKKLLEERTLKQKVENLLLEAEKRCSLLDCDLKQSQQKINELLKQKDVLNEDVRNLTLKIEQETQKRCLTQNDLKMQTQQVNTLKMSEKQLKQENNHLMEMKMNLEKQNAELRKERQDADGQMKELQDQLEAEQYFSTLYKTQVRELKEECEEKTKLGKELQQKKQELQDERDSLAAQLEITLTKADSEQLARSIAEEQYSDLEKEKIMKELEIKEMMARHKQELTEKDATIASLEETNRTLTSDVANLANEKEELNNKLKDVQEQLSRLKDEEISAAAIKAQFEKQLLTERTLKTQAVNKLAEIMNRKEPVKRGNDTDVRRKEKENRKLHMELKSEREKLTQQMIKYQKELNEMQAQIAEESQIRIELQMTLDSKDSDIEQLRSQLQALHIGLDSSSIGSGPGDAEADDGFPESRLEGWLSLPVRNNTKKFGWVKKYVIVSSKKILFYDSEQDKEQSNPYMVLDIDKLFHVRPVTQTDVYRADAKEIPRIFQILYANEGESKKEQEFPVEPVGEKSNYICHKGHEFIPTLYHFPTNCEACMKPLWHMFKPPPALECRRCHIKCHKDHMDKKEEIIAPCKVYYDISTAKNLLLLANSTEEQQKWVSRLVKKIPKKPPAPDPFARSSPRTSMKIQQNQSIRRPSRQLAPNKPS
T15 sequence (O15530 whole entry): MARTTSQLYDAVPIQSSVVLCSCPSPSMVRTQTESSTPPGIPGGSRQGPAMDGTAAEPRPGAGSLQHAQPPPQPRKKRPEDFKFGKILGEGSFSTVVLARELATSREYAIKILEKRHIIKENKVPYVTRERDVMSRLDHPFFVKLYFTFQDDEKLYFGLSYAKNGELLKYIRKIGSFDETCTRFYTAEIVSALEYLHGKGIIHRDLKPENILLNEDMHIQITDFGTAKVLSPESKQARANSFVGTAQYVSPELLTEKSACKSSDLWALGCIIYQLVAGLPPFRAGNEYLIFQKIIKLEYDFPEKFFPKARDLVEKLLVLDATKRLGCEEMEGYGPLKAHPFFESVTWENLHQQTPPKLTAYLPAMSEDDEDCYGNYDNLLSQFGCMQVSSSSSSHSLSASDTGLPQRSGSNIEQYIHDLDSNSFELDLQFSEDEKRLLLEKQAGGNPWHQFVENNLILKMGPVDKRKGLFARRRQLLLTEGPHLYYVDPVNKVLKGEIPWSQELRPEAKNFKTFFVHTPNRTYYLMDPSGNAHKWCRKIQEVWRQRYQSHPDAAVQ
Sequence of IRAK4 (Q9NWZ3 whole entry): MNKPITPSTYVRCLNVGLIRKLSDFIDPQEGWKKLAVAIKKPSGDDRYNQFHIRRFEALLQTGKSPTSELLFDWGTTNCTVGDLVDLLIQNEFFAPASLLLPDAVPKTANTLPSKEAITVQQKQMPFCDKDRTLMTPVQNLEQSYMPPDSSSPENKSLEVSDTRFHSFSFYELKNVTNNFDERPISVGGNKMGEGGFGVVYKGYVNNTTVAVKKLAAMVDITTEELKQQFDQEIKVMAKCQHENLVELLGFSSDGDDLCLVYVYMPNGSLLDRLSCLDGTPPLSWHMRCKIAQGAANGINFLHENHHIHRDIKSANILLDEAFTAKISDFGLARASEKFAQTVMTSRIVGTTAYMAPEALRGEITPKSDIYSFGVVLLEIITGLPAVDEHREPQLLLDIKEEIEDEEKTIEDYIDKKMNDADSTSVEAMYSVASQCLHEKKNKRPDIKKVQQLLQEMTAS
T20 sequence (P29597 whole entry): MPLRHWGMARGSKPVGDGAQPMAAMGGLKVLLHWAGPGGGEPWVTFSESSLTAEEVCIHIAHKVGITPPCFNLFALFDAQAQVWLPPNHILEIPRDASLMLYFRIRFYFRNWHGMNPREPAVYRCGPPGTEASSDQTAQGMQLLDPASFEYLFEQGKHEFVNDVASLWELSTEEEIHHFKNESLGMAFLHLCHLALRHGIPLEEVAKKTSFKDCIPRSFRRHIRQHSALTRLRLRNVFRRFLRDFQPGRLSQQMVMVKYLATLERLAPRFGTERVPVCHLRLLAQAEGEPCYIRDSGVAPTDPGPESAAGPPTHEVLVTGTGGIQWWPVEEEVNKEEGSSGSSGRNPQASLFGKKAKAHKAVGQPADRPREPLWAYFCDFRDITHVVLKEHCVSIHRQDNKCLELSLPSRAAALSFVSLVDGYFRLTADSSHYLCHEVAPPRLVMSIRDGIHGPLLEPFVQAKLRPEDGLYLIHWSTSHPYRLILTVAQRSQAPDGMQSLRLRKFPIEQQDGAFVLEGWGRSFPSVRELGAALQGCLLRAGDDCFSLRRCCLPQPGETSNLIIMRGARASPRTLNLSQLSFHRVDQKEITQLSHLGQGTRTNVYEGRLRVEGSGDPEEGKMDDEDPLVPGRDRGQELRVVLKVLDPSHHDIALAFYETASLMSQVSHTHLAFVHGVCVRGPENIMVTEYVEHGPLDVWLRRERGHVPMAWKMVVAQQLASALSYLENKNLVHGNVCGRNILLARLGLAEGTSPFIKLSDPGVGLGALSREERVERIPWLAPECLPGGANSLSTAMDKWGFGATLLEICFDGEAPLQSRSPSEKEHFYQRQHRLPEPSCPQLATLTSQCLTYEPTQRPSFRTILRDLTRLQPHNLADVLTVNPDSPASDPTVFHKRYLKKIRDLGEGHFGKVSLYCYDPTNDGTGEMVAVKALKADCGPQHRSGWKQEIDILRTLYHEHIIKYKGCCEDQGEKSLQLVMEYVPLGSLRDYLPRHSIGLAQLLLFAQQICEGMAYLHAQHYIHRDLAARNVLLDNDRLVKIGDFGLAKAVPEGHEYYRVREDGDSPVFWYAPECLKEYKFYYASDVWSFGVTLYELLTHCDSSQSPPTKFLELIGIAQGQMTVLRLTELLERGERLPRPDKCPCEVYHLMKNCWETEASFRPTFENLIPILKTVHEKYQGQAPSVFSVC
T12 sequence (P49759 whole entry): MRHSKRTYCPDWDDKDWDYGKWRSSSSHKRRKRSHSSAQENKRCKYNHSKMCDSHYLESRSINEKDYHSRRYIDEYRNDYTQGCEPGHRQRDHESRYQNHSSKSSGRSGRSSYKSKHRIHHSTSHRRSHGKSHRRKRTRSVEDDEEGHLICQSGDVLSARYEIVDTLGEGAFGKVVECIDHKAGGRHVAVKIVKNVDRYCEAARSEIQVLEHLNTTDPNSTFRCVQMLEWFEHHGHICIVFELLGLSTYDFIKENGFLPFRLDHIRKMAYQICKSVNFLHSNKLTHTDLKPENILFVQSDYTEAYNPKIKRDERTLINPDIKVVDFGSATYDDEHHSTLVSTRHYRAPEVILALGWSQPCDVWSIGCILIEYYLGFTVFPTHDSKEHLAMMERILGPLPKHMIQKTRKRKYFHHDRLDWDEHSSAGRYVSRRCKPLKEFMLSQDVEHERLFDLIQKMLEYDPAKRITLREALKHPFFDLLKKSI

COc1ccc2[nH]c3c(=O)[nH]c4ccc(O)cc4c3c2c1 [Compound 55, 2-Hydroxy-10-methoxy-5,7-dihydro-6H-indolo[2,3-c]quinolin-6-one]
inhibition at 1 µM (MAP4K5 (KHS1)): 90% | inhibition at 1 µM (CDK5/p25): 33% | inhibition at 1 µM (PRKCB2 (PKC beta II)): 13% | inhibition at 1 µM (EPHB4): 21% | inhibition at 1 µM (CDC42 BPB (MRCKB)): 10% | inhibition at 1 µM (SGK (SGK1)): 29% | inhibition at 1 µM (ZAP70): 0% | inhibition at 1 µM (CAMK4 (CaMKIV)): 41% | inhibition at 1 µM (PIM1): 71% | inhibition at 1 µM (RET V804L): 98% | inhibition at 1 µM (SRPK2): 6% | inhibition at 1 µM (KIT V560G): 27% | inhibition at 1 µM (CSNK2A2 (CK2 alpha 2)): 17% | inhibition at 1 µM (PRKCN (PKD3)): 40% | inhibition at 1 µM (CLK1): 98% | inhibition at 1 µM (FLT3 D835Y): 100% | inhibition at 1 µM (BRAF): 100% | inhibition at 1 µM (PDK1 Direct): 17% | inhibition at 1 µM (FRAP1 (mTOR)): 6% | inhibition at 1 µM (INSRR (IRR)): 52% | inhibition at 1 µM (AMPK (A2/B1/G2)): 63% | inhibition at 1 µM (EPHA2): 40% | inhibition at 1 µM (CLK2): 97% | inhibition at 1 µM (RPS6KA6 (RSK4)): 93% | inhibition at 1 µM (TYRO3 (RSE)): 60% | inhibition at 1 µM (TYK2): 51% | inhibition at 1 µM (IRAK4): 61% | inhibition at 1 µM (ALK): 24% | inhibition at 1 µM (SGK2): 19% | inhibition at 1 µM (PRKG1): 11% | inhibition at 1 µM (PRKCQ (PKC theta)): 7% | inhibition at 1 µM (AMPK (A2/B2/G3)): 57% | inhibition at 1 µM [1]: 13% | inhibition at 1 µM (ROCK2): 4% | inhibition at 1 µM (ERBB4 (HER4)): 20% | inhibition at 1 µM (MAP2K1 (MEK1)): 98% | inhibition at 1 µM (MERTK): 44% | inhibition at 1 µM (CSK): 9% | inhibition at 1 µM (ROS1): 29%
